# Values of other authors, collected in paper PMC4381553, “Acute and Chronic Toxicity, Cytochrome P450 Enzyme Inhibition, and hERG Channel Blockade Studies with a Polyherbal, Ayurvedic Formulation for Inflammation” (BioMed Research International, 2015).
# Read-outs that look alike come from different tables or passages of the source.
# Assays:
# [1] = test system: CYP3a; conditions: only at very high dose (200 μg/mL), rat liver microsome
# [2] = test system: CYP3a; conditions: only at very high dose (200 μg/mL), human liver microsome
compound,measurement,setting,value
CC1=C(CO)C(=O)O[C@@H]([C@@H](C)[C@H]2CC[C@H]3[C@@H]4CC=C5C[C@@H](O[C@@H]6O[C@H](CO[C@@H]7O[C@H](CO)[C@@H](O)[C@H](O)[C@H]7O)[C@@H](O)[C@H](O)[C@H]6O)C[C@H](O)[C@]5(C)[C@H]4CC[C@]23C)C1 [Withanoside IV],inhibitory activity of CYP3a,[1],some inhibitory activity
same,inhibitory activity of CYP3a,[2],some inhibitory activity
